Measurements from patent EP3436024B1, “3-BETA-METHOXY-PREG FOR USE IN THE TREATMENT OF TREATMENT RESISTANT DEPRESSION” (Mapreg, priority 2016, dated 2017).

How the values were obtained:
[1] = target: Dopaminergic D3 (Homo sapiens, UniProt P35462); assay: CNS receptor binding assay, D3; details: MAP4343 10 µM; [^3H] spiperone; Human recombinant (CHO cells); read-out: % Inhibition of control specific binding
Description: (§1) MAP4343 has been screened for in vitro affinity to 80 different CNS neurotransmitters receptors using various validated binding assays.
(§2) Table 4. In vitro affinity of MAP4343 (10 µM) for CNS neurotransmitter receptors associated with side effects and/or abuse liability. Data are the average of two individual assays for each receptor and are expressed as % inhibition of the control specific binding of the reference compound. Results showing an inhibition higher than 50% are considered to represent significant effects of the test compound.

[2] = target: Serotoninergic 5-HT5A (Homo sapiens, UniProt P47898); assay: CNS receptor binding assay, 5-HT5A; details: MAP4343 10 µM; [^3H] LSD; Human recombinant (CHO cells); read-out: % Inhibition of control specific binding
Description: as §1, §2

[3] = target: T1, human progesterone receptor(PR) (Homo sapiens, UniProt P06401); assay: Test of progesterone receptor antagonist activity (MMTV-luciferase transactivation in transfected HEK293T cells, with progesterone 1 nM); format: cell-based; details: 24 hours, progesterone 1 nM plus increasing amounts, Figure 2
T1 construct: expressed in transfected cells; host or cells: HEK293T
T1 sequence (P06401 1-933): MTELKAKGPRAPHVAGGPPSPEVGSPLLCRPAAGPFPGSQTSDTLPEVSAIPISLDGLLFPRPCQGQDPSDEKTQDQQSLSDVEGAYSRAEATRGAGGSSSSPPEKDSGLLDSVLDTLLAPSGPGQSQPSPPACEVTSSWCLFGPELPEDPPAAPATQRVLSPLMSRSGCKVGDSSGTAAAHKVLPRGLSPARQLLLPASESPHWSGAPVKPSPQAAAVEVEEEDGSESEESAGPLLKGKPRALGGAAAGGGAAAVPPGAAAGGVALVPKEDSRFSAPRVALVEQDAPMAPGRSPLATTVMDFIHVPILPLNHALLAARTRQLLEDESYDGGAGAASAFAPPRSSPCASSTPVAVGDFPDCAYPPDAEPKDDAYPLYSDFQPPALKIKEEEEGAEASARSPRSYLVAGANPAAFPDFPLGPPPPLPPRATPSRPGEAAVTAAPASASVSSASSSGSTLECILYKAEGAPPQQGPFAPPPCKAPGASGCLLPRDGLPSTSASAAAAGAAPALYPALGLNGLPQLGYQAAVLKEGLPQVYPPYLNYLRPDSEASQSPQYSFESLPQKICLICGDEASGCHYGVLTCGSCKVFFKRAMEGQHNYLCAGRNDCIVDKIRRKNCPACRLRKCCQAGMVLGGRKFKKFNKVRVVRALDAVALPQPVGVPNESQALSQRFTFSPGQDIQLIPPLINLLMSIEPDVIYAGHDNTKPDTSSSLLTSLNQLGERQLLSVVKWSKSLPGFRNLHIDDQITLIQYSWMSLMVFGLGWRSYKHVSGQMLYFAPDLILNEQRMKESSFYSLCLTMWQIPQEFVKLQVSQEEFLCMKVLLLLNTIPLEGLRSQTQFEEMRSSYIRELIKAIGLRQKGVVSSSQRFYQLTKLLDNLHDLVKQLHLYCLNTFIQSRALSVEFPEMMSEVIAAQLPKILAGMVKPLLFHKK
Description: The main experimental setting used is the following: HEK293T cells were transiently transfected, using calcium phosphate precipitation technology, with expression vectors pSG5hPR (which permits expression of human progesterone receptor(PR)), pFC31-luc (contains the luciferase gene under the control of the MMTV promoter, which is in turn activated by binding of a progestin to progesterone receptor) and pcbetagal (which permits expression of betagalactosidase), and cultured during 24 hours with increasing amounts of various compositions: • 1. […] Test of progesterone receptor […] activity: transfected cells were cultured with progesterone (1 nM) and increasing amounts of RU486 (a well-known progesterone receptor antagonist) or 3-methoxy-pregnenolone. With this setting, a compound with progesterone receptor antagonist activity competes with progesterone for the occupation of progesterone receptor and results in a progressive loss of transactivation activity when the amount of this compound is increased compared to progesterone.

[4] = target: purified tubulin and MAP2 (Homo sapiens, UniProt P11137); assay: Microtubule polymerization activity (optical density at 345 nm); format: biochemical; details: increase in optical density at 345 nm, 37 °C, in the presence of GTP
Description: Activity is measured by the increase in optical density at 345 nm of a mixture of purified tubulin and MAP2, incubated at 37 °C in the presence of GTP.

[5] = tested on: Wistar Kyoto (WKY) rats; assay: Elevated-plus maze (EPM), WKY rats; format: in vivo, rat; details: acute, MAP4343 10 mg/kg s.c., fluoxetine 10 mg/kg, ketamine 30 mg/kg i.p., Fig. 5D
Description: After a 6-day period of acclimatization, all experimental groups received daily successive subcutaneous (250 µl per rat) and intraperitoneal (1 ml/kg) injections. WI rats received injection of vehicle (sesame oil + saline) while WKY rats were randomly assigned to […], as follow: KWY rats receiving only vehicle (sesame oil + saline) and WKY rats treated with MAP4343 (10 mg/kg, s.c.; rats received in parallel i.p. injections of saline), fluoxetine (10 mg/kg i.p., rats received in parallel s.c. injections of sesame oil) or ketamine (30 mg/kg, i.p.; rats received in parallel s.c. injections of sesame oil) (see Figure 3).
After, a 6-day period of acclimatization, the acute phase of treatment started for 4 days during behavioral tests were performed (Figure 3). All animals were injected 1h30 before the starting of behavioral test.
We used the elevated-plus maze (EPM) as an assay of anxiety-related behavior in rodents (Walf and Frye, 2007). Rats were initially placed in the center of the plus-maze, consisting of two open arms (50 x 10 cm) and two closed arms (50 x 10 cm enclosed by 40 cm walls), in a 50 lux illuminated room and videotaped during 5 min using a computerized system (VideoTrack V2.5, ViewPoint, Lyon, France). The time spent in the open versus closed arms was blindly measured by two independent experimenters from the recorded video, and the open arm-index was calculated as follow: time in the open arms (sec) / [time in open arms (sec) + time in closed arms (sec)].

[6] = target: Histaminergic H2 (Homo sapiens, UniProt P25021); assay: CNS receptor binding assay, H2; details: MAP4343 10 µM; [^125I] APT; Human recombinant (CHO cells); read-out: % Inhibition of control specific binding
Description: as §1, §2

[7] = target: T2, Muscarinic (Cholinergic) M4 (Homo sapiens, UniProt P08173); assay: CNS receptor binding assay, M4; details: MAP4343 10 µM; [^3H] 4-DAMP; Human recombinant (CHO cells); read-out: % Inhibition of control specific binding
T2 construct: expressed in transfected cells; host or cells: CHO cells
Description: as §1, §2

[8] = target: T3, Muscarinic (Cholinergic) M2 (Homo sapiens, UniProt P08172); assay: CNS receptor binding assay, M2; details: MAP4343 10 µM; [^3H] AF-DX 384; Human recombinant (CHO cells); read-out: % Inhibition of control specific binding
T3 construct: expressed in transfected cells; host or cells: CHO cells
Description: as §1, §2

Sequence of Dopaminergic D3 (P35462 whole entry): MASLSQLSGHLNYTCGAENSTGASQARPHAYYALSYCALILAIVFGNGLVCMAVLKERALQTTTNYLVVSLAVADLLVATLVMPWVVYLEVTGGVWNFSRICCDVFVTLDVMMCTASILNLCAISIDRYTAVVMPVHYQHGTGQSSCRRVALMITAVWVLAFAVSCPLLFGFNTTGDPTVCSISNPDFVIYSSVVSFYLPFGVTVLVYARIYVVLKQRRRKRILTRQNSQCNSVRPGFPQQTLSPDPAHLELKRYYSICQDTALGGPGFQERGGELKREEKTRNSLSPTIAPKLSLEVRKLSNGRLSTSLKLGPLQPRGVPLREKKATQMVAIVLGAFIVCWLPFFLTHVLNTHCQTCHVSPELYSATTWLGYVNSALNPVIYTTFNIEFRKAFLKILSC
Sequence of Serotoninergic 5-HT5A (P47898 whole entry): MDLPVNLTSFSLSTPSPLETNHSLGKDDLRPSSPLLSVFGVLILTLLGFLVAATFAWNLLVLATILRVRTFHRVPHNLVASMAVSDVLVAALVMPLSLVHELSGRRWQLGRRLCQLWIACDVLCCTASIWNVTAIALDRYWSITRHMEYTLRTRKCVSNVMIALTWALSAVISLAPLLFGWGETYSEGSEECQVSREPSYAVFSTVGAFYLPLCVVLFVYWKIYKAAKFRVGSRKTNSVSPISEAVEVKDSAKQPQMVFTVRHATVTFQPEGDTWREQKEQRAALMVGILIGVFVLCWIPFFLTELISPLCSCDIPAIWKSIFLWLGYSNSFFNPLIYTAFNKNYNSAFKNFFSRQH
T3 sequence (P08172 whole entry): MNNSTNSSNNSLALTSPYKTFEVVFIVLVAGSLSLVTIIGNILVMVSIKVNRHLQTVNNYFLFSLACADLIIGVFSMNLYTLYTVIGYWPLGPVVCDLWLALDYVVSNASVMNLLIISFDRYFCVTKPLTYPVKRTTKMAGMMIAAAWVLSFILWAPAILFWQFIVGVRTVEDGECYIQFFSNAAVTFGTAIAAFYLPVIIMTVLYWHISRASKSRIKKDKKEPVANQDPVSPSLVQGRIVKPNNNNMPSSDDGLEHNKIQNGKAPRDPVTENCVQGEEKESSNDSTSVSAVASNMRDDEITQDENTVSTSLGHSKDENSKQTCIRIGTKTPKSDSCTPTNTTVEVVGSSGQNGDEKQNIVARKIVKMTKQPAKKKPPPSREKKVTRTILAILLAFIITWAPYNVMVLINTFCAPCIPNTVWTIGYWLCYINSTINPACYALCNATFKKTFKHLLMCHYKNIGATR
T2 sequence (P08173 whole entry): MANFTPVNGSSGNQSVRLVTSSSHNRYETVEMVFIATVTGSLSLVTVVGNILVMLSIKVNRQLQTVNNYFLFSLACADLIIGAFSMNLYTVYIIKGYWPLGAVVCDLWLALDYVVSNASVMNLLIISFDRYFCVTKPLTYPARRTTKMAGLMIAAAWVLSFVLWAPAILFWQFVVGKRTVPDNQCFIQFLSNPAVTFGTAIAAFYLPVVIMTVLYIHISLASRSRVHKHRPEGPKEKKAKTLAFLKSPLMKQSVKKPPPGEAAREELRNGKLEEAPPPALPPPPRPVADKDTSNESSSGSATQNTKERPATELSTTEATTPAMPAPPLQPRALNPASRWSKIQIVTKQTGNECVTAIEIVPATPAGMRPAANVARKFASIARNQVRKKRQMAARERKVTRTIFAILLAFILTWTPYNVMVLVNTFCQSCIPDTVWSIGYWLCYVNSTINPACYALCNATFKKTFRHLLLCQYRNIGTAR
Sequence of Histaminergic H2 (P25021 whole entry): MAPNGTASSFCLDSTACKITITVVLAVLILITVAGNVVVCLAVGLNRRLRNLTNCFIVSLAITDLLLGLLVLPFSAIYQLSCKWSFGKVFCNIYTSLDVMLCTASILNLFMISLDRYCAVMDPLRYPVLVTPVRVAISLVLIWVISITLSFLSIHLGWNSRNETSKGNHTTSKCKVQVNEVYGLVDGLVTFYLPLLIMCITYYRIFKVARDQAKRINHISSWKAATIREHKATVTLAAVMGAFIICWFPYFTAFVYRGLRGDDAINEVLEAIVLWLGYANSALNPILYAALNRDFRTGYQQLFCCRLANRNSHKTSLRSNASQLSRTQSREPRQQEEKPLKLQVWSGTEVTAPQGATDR
Sequence of purified tubulin and MAP2 (P11137 whole entry): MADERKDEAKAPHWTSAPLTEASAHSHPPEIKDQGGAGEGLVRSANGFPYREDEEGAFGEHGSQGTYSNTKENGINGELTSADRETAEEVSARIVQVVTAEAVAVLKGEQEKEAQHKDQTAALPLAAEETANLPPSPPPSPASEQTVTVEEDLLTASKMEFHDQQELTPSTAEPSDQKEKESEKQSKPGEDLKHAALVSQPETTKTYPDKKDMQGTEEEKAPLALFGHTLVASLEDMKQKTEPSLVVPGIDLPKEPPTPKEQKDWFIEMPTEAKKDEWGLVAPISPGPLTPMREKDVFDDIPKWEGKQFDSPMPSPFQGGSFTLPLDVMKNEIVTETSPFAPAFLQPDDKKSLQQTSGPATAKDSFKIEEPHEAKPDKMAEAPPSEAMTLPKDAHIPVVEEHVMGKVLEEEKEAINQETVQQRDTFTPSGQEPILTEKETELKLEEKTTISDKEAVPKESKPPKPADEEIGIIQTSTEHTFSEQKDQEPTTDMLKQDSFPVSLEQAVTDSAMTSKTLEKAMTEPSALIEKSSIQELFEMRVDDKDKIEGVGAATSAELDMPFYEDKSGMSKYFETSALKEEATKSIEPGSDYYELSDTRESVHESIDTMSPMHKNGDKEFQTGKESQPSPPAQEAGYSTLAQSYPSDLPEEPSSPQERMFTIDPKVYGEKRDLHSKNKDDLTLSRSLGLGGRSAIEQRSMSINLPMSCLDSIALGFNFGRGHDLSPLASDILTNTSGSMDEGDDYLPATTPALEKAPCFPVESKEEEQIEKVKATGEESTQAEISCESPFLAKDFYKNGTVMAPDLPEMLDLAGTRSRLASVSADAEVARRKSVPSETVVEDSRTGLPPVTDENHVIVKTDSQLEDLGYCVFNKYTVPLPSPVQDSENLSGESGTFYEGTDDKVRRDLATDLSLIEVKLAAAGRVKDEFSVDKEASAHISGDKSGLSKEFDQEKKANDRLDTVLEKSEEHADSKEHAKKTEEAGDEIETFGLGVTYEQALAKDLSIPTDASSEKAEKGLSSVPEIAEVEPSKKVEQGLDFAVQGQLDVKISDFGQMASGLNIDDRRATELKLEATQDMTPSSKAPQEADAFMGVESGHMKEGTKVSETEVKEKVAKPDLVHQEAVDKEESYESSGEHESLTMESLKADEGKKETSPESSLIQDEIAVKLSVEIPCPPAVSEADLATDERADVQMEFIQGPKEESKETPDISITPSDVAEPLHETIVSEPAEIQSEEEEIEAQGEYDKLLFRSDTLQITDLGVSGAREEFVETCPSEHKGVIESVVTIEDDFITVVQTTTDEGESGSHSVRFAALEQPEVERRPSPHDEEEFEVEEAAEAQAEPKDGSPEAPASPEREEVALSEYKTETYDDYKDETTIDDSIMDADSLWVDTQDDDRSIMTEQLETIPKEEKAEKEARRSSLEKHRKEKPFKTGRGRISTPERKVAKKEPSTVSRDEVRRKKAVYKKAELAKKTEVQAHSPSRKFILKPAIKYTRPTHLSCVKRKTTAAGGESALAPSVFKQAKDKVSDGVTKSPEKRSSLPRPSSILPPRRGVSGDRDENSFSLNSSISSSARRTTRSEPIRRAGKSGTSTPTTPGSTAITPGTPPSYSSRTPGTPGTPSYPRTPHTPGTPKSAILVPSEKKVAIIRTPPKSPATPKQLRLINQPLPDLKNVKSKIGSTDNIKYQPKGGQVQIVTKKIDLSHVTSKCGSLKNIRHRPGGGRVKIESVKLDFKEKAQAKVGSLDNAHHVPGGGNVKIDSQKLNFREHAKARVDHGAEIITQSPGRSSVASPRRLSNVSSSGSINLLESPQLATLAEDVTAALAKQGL

In the case of `CO[C@H]1CC[C@@]2(C)C(=CC[C@H]3[C@@H]4CC[C@H](C(C)=O)[C@@]4(C)CC[C@@H]32)C1` (stereo in doubt) [MAP4343, 3β-methoxy-pregna-5-ene-20-one], the inhibition at 10 µM [1] is reported as 8%, the inhibition at 10 µM [2] is reported as -5% and the “progesterone receptor antagonist activity” value [3] is reported as “weak progesterone receptor antagonist”. The Activity [4] was 100% of PREG, the “open-arm (OA) index, change when compared to WKY receiving vehicle alone” value [5] was 165% and the inhibition at 10 µM [6] was -21%. For the same compound, the inhibition at 10 µM [7] was 20% and the inhibition at 10 µM [8] was 20%.
